The values that follow come from patent US7659244B2, “Rapamycin peptides conjugates: synthesis and uses thereof” (Quest Pharmatech, Inc., priority 2004, dated 2010).

The mark [1] stands for this setting: read-out: Inhibition of H^3 Thymidine uptake (IC50 in nM), SK-N-SH cells, 96 hours incubation.
[2] abbreviates: read-out: Inhibition of H^3 Thymidine uptake (IC50 in nM), D341 cells, 96 hours incubation.
The mark [3] stands for this setting: read-out: Inhibition of H^3 Thymidine uptake (IC50 in nM), MCF-7 cells, 96 hours incubation.
Where [4] appears, read: read-out: Inhibition of H^3 Thymidine uptake (IC50 in nM), Lncap cells, 96 hours incubation.
Where [5] appears, read: read-out: Inhibition of H^3 Thymidine uptake (IC50 in nM), LS174T cells, 96 hours incubation.
[6] abbreviates: read-out: Inhibition of H^3 Thymidine uptake (IC50 in nM), OVCAR-3 cells, 96 hours incubation.
Where [7] appears, read: read-out: Inhibition of H^3 Thymidine uptake (IC50 in nM), SKMEL-2 cells, 96 hours incubation.
The mark [8] stands for this setting: read-out: Inhibition of H^3 Thymidine uptake (IC50 in nM), A431 cells, 96 hours incubation.
The mark [9] stands for this setting: read-out: Inhibition of H^3 Thymidine uptake (IC50 in nM), SKOV-3 cells, 96 hours incubation.

Read-outs that look alike come from different tables or passages of the source.

Protocol for A431: (§1) Quantification of cell proliferation and cell viability was determined by measuring the amount of radioactive [^3H-methyl]-thymidine incorporated into DNA.
(§2) Cell culture: For each cell line, culture was carried according to the ATCC Product Information Sheet provided. Cell lines were always freshly thawed prior to each experiment. For all experiments exponentially growing cells were harvested and centrifuged at 1100 rpm, the spent medium was aspirated and cell pellets were resuspended in fresh complete medium. Viable cells were enumerated by trypan blue exclusion using a hemacytometer.
(§3) Cells were then seeded in 96 well tissue culture plates in a total volume of 100 μL/well. A preliminary experiment should be performed to determine the most appropriate cell density for each individual cell line. Cells were allowed to attach and acclimate overnight.
(§4) Addition of test compounds: Each test compound was dissolved in DMSO at a final concentration of 2 mM. Each stock compound was then diluted in complete medium (1:100) to obtain a 20 μM working solution. The working solution was used for further serial dilutions to obtain concentrations of 200 nM, 20 nM, 2 nM, 0.2 nM and 0.02 nM. 100 μL of each dilution was added to the 100 μL cell cultures (3 replicates),. to give final test concentrations of 100 nM, 10 nM, 1 nM, 0.1 nM and 0.01 nM. Using this system of dilutions, the maximum concentration of DMSO to which the cells were exposed was 0.01% v/v. Therefore, 0.01% DMSO was added to control cells to which no test compounds was added. On each plate two positive controls were included: Adriamycin Hydrochloride and Rapamycin. For each positive control 3 concentrations were chosen in a range that achieved an LC50, this range is cell line specific and must be predetermined in a pilot experiment. Plates were incubated for 96 hours prior to harvesting. [^3H-methyl]-thymidine incorporation: After 80 hours incubation, 10 μL (0.5 μCi) of [^3H-methyl]-thymidine diluted in 1× HBSS was added and plates were incubated overnight.
(§5) Growth medium was removed from each well and 100 uL of Trypsin-EDTA was added. The plate was incubated at 37° C. until cells were trypsinized (check under microscope). The detached cells were harvested using a semiautomatic cell harvester. Filters were dried prior to addition to scintillation vials. two mL of scintillation fluid was automatically dispensed into each vial and counting was effected on program 1 (^3H, 1 min, DPM).
(§6) The average and standard error from the DPM counts of replicate samples were calculated.
Protocol for D341: as §1, §2, §3, §4, §5, §6
Protocol for LS174T: as §1, §2, §3, §4, §5, §6
Protocol for Lncap: as §1, §2, §3, §4, §5, §6
Protocol for MCF-7: as §1, §2, §3, §4, §5, §6
Protocol for OVCAR-3: as §1, §2, §3, §4, §5, §6
Protocol for SK-N-SH: as §1, §2, §3, §4, §5, §6
Protocol for SKMEL-2: as §1, §2, §3, §4, §5, §6
Protocol for SKOV-3: as §1, §2, §3, §4, §5, §6

As to `CO[C@H]1C[C@@H]2CC[C@@H](C)[C@@](O)(O2)C(=O)C(=O)N2CCCC[C@H]2C(=O)O[C@H]([C@H](C)C[C@@H]2CC[C@@H](OC(=O)NC(CO)(CO)CO)[C@H](OC)C2)CC(=O)[C@H](C)/C=C(\C)[C@@H](O)[C@@H](OC)C(=O)[C@H](C)C[C@H](C)/C=C/C=C/C=C/1C` [Compound 7u, Rapamycin-42-O-ester-Tris(hydroxymethyl)amino methane], the IC50 was 6.4 nM with SK-N-SH (setting [1]); 20.8 nM with D341 (setting [2]); 1.54 nM in the test on MCF-7 (setting [3]); 14 nM in the test with Lncap (setting [4]); 1590 nM in the test with LS174T (setting [5]); 56.6 nM with OVCAR-3 (setting [6]). Besides, the results for the IC50 with SKMEL-2 (setting [7]), in the test on A431 (setting [8]) and in the test with SKOV-3 (setting [9]) were 6.15 nM, 282 nM and 8.08 nM, respectively.
Take `CC[C@H](C)[C@H](NC(=O)[C@@H](CC(C)C)NC(=O)O[C@@H]1CC[C@@H](C[C@@H](C)[C@@H]2CC(=O)[C@H](C)/C=C(\C)[C@@H](O)[C@@H](OC)C(=O)[C@H](C)C[C@H](C)/C=C/C=C/C=C(\C)[C@@H](OC)C[C@@H]3CC[C@@H](C)[C@@](O)(O3)C(=O)C(=O)N3CCCC[C@H]3C(=O)O2)C[C@H]1OC)C(=O)N[C@H](CO)Cc1ccccc1` [Compound 7d, Rapamycin-42-O-ester-(NH-D-Leu-L-Ile-S-Phe-CH2OH)]: the IC50 in the test on SK-N-SH (96 h) was determined as 137 nM; with D341 (96 h), 140 nM; in the test on MCF-7 (96 h), 52.2 nM; with Lncap (96 h), 198 nM; in the test on OVCAR-3 (96 h), 343 nM; in the test on SKMEL-2 (96 h) it was 358 nM. For the same compound, the IC50 with A431 (96 h) came out at 12700 nM; in the test with SKOV-3 (96 h), 94.3 nM.
For the compound `CC[C@H](C)[C@H](NC(=O)O[C@@H]1CC[C@@H](C[C@@H](C)[C@@H]2CC(=O)[C@H](C)/C=C(\C)[C@@H](O)[C@@H](OC)C(=O)[C@H](C)C[C@H](C)/C=C/C=C/C=C(\C)[C@@H](OC)C[C@@H]3CC[C@@H](C)[C@@](O)(O3)C(=O)C(=O)N3CCCC[C@H]3C(=O)O2)C[C@H]1OC)C(=O)N[C@@H](CO)Cc1ccccc1` [Compound 7a, Rapamycin-42-O-ester-(NH-L-Ile-D-Phe-CH2OH)], the IC50 in the test with SK-N-SH (96 h) is 86.9 nM; with D341 (96 h), 138 nM; with MCF-7 (96 h), 29.6 nM; in the test on Lncap (96 h), 154 nM; with LS174T (96 h), 626 nM; in the test with OVCAR-3 (96 h), 416 nM. Moreover, the results for the IC50 in the test with SKMEL-2 (96 h), with A431 (96 h) and with SKOV-3 (96 h) were 78.1 nM, 608 nM and 80 nM, respectively.
Consider `CO[C@H]1C[C@@H]2CC[C@@H](C)[C@@](O)(O2)C(=O)C(=O)N2CCCC[C@H]2C(=O)O[C@H]([C@H](C)C[C@@H]2CC[C@@H](OC(=O)N[C@@H](CO)[C@@H](O)c3ccccc3)[C@H](OC)C2)CC(=O)[C@H](C)/C=C(\C)[C@@H](O)[C@@H](OC)C(=O)[C@H](C)C[C@H](C)/C=C/C=C/C=C/1C` [Compound 7l, Rapamycin-42-O-ester-(1S,2S)-(+)-2-amino-1-phenyl-1,3-propandiol], for which the IC50 was 15.6 nM in the test on SK-N-SH (setting [1]); 27.6 nM with D341 (setting [2]); 6.35 nM in the test with MCF-7 (setting [3]); 64.6 nM in the test on Lncap (setting [4]); 23500 nM in the test with LS174T (setting [5]); 113 nM in the test with OVCAR-3 (setting [6]). For the same compound, the results for the IC50 in the test on SKMEL-2 (setting [7]), with A431 (setting [8]) and in the test with SKOV-3 (setting [9]) were 29.1 nM, 217 nM and 17.1 nM, respectively.
Consider `CO[C@H]1C[C@@H]2CC[C@@H](C)[C@@](O)(O2)C(=O)C(=O)N2CCCC[C@H]2C(=O)O[C@H]([C@H](C)C[C@@H]2CC[C@@H](OC(=O)NC3C(=O)OC(C)(C)OC3=O)[C@H](OC)C2)CC(=O)[C@H](C)/C=C(\C)[C@@H](O)[C@@H](OC)C(=O)[C@H](C)C[C@H](C)/C=C/C=C/C=C/1C` [Compound 7x], for which the IC50 in the test on SK-N-SH (setting [1]) was 11.3 nM; in the test with MCF-7 (setting [3]), 7.09 nM; with Lncap (setting [4]), 3.32 nM; in the test with LS174T (setting [5]), 433 nM; in the test with SKMEL-2 (setting [7]) it was 113 nM; in the test on SKOV-3 (setting [9]), 3.4 nM.
For `CC[C@H](C)[C@H](NC(=O)[C@H](CC(C)C)NC(=O)[C@H](C)NC(=O)[C@@H](Cc1cn(C(c2ccccc2)(c2ccccc2)c2ccccc2)cn1)NC(=O)O[C@@H]1CC[C@@H](C[C@@H](C)[C@@H]2CC(=O)[C@H](C)/C=C(\C)[C@@H](O)[C@@H](OC)C(=O)[C@H](C)C[C@H](C)/C=C/C=C/C=C(\C)[C@@H](OC)C[C@@H]3CC[C@@H](C)[C@@](O)(O3)C(=O)C(=O)N3CCCC[C@H]3C(=O)O2)C[C@H]1OC)C(=O)N[C@@H](CO)Cc1ccccc1` [Compound 7g], the IC50 in the test on D341 (96 h) is 937 nM; in the test on MCF-7 (96 h) it was 2440 nM; with LS174T (96 h) it was 3680 nM; in the test on SKMEL-2 (96 h) it was 946 nM; in the test on SKOV-3 (96 h), 595 nM.
Take `COC(=O)C(NC(=O)O[C@@H]1CC[C@@H](C[C@@H](C)[C@@H]2CC(=O)[C@H](C)/C=C(\C)[C@@H](O)[C@@H](OC)C(=O)[C@H](C)C[C@H](C)/C=C/C=C/C=C(\C)[C@@H](OC)C[C@@H]3CC[C@@H](C)[C@@](O)(O3)C(=O)C(=O)N3CCCC[C@H]3C(=O)O2)C[C@H]1OC)C(=O)OC` [Compound 7w]: the IC50 with SK-N-SH (setting [1]) was found to be 164 nM; in the test with MCF-7 (setting [3]), 103 nM; in the test with Lncap (setting [4]) it was 83.5 nM; in the test with LS174T (setting [5]) it was 859 nM; with SKMEL-2 (setting [7]), 378 nM; with SKOV-3 (setting [9]), 26.5 nM.
In the case of `CO[C@H]1C[C@@H]2CC[C@@H](C)[C@@](O)(O2)C(=O)C(=O)N2CCCC[C@H]2C(=O)O[C@H]([C@H](C)C[C@@H]2CC[C@@H](OC(=O)N[C@H](CO)Cc3ccccc3)[C@H](OC)C2)CC(=O)[C@H](C)/C=C(\C)[C@@H](O)[C@@H](OC)C(=O)[C@H](C)C[C@H](C)/C=C/C=C/C=C/1C` [Compound 7j, Rapamycin-42-O-ester-(S) (−)-2-amino-3-phenyl-1-propanol], the IC50 turned out to be 80 nM in the test on SK-N-SH (setting [1]); 106 nM in the test with D341 (setting [2]); 15.3 nM with MCF-7 (setting [3]); 166 nM in the test on Lncap (setting [4]); 264 nM with OVCAR-3 (setting [6]); 157 nM in the test on SKMEL-2 (setting [7]). Also, the IC50 with A431 (setting [8]) is 506 nM; in the test on SKOV-3 (setting [9]), 55.9 nM.
As for `COC1CC2CCC(C)C(O)(O2)C(=O)C(=O)N2CCCCC2C(=O)OC(C(C)CC2CCC(OC(=O)NC(CO)CC(C)C)C(OC)C2)CC(=O)C(C)C=C(C)C(O)C(OC)C(=O)C(C)CC(C)C=CC=CC=C1C` [Compound 7s, Rapamycin-42-O-ester-(R)-(−)-2-amino-4-methyl pentanol], the IC50 in the test with SK-N-SH (setting [1]) amounted to 97.3 nM; in the test on D341 (setting [2]), 103 nM; in the test with MCF-7 (setting [3]), 15.6 nM; in the test on Lncap (setting [4]), 189 nM; in the test with OVCAR-3 (setting [6]), 355 nM; with SKMEL-2 (setting [7]) it was 154 nM. Moreover, the IC50 came out at 625 nM in the test with A431 (setting [8]) and 93.6 nM in the test on SKOV-3 (setting [9]).
In the case of `CO[C@H]1C[C@@H]2CC[C@@H](C)[C@@](O)(O2)C(=O)C(=O)N2CCCC[C@H]2C(=O)O[C@H]([C@H](C)C[C@@H]2CC[C@@H](OC(=O)CCC(=O)N[C@H](CO)Cc3ccccc3)[C@H](OC)C2)CC(=O)[C@H](C)/C=C(\C)[C@@H](O)[C@@H](OC)C(=O)[C@H](C)C[C@H](C)/C=C/C=C/C=C/1C` [Compound 7v, Rapamycin-42-O-(3-carboxypropanoyl) ester-(S) (−)-2-amino-3-phenyl-1-propanol], the IC50 came to 18.8 nM in the test on SK-N-SH (setting [1]); 15 nM in the test on D341 (setting [2]); 5.52 nM in the test on MCF-7 (setting [3]); 48.3 nM with Lncap (setting [4]); 95.5 nM in the test on OVCAR-3 (setting [6]); 81 nM in the test with SKMEL-2 (setting [7]). In addition, the results for the IC50 in the test with A431 (setting [8]) and in the test on SKOV-3 (setting [9]) were 1030 nM and 10.4 nM, respectively.

As usually defined, the IC50 is the concentration that inhibits the measured activity by half.
